{"source": "BindingDB's records for doi:10.1021/acs.jmedchem.8b01183", "about": "(2018)", "key": {"[1]": {"target": "Sigma non-opioid intracellular receptor 1 (Cavia porcellus, UniProt Q60492)", "sequence (Q60492 whole entry)": "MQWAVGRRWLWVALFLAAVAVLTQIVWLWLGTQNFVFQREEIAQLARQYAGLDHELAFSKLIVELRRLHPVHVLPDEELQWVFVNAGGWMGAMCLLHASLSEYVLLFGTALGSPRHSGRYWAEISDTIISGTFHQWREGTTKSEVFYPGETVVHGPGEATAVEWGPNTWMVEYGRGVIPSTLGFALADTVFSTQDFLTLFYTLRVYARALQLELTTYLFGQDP", "experiment": "Displacement of [3H]-(+)-pentazocine from sigma1 receptor in guinea pig brain cortex membranes incubated for 120 mins by scintillation counting method"}, "[2]": {"target": "T1, Sigma intracellular receptor 2 (Rattus norvegicus, UniProt Q5U3Y7)", "T1 sequence (Q5U3Y7 whole entry)": "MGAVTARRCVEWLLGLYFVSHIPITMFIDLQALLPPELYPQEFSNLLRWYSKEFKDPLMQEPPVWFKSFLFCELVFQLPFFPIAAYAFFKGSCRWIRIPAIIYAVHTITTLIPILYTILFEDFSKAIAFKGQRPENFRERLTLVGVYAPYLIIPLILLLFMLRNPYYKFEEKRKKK", "experiment": "Displacement of [3H]-di-o-tolylguanidine from sigma2 receptor in rat liver membranes incubated for 120 mins by scintillation counting method"}, "[3]": {"target": "Delta-type opioid receptor (Rattus norvegicus, UniProt P33533)", "sequence (P33533 whole entry)": "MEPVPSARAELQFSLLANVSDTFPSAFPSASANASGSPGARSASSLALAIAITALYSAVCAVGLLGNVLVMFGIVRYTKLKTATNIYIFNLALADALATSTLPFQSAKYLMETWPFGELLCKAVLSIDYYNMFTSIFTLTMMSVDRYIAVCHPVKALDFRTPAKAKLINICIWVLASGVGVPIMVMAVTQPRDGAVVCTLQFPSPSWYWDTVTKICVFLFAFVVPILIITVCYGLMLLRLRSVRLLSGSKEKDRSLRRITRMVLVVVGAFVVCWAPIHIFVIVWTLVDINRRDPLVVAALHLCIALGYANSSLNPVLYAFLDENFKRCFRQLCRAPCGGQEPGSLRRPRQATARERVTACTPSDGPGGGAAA", "experiment": "Displacement of [3H]DPDPE from DOR in rat brain membranes incubated for 120 mins by scintillation counting method"}, "Mu-type opioid receptor [4]": {"target": "Mu-type opioid receptor (Homo sapiens, UniProt P35372)", "sequence (P35372 whole entry)": "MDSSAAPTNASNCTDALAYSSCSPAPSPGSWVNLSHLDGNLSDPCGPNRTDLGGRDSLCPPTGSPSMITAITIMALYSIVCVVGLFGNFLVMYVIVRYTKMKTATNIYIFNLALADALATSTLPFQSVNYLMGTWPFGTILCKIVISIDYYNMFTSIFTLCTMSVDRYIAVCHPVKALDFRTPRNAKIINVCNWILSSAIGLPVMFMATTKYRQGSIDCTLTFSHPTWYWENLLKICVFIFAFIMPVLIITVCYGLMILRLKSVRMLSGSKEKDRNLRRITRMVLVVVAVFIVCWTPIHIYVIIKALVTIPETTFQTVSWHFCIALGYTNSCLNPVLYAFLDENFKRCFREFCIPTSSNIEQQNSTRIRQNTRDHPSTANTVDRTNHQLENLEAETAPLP", "experiment": "Agonist activity at human MOR expressed in CHOK1 cells assessed as reduction in forskolin-induced intracellular cAMP increase after 45 mins by HTRF analysis"}, "Mu-type opioid receptor [5]": {"target": "Mu-type opioid receptor (Cavia porcellus, UniProt P97266)", "sequence (P97266 whole entry)": "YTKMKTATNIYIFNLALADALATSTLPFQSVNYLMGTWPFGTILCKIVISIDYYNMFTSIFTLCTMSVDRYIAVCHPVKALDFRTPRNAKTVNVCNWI", "experiment": "Displacement of [3H]DAMGO from MOR in guinea pig brain membranes incubated for 120 mins by scintillation counting method"}, "[6]": {"target": "Kappa-type opioid receptor (Cavia porcellus, UniProt P41144)", "sequence (P41144 whole entry)": "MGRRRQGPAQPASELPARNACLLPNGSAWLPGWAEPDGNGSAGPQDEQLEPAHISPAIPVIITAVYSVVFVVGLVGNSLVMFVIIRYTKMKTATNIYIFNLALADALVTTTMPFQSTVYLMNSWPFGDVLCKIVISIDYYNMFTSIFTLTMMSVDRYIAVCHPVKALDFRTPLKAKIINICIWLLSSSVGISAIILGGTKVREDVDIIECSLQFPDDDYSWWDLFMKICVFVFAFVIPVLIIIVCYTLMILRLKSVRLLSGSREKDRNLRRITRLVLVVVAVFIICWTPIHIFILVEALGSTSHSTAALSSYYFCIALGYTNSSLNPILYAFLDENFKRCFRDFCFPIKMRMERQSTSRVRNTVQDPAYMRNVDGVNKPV", "experiment": "Displacement of [3H]U-69,593 from KOR in guinea pig brain membranes incubated for 120 mins by scintillation counting method"}}}
{"smiles": "Cc1ccc(CNC2CCC3(CC2)O[C@H](CCO)Cc2ccccc23)c(C)c1", "note": "(stereo partly specified)", "values": [{"measurement": "Ki", "setting": "[1]", "value": "> 1000", "unit": "nM"}]}
{"smiles": "CO[C@@H]1Cc2ccccc2C2(CCC(NCc3ccccc3)CC2)O1", "note": "(stereo partly specified)", "values": [{"measurement": "Ki", "setting": "[2]", "value": "> 1000", "unit": "nM"}]}
{"smiles": "CO[C@H]1Cc2ccccc2C2(CCC(NCc3ccc(C)cc3C)CC2)O1", "note": "(stereo partly specified)", "values": [{"measurement": "Ki", "setting": "[1]", "value": "> 1000", "unit": "nM"}]}
{"smiles": "O[C@H]1Cc2ccccc2C2(CCC(N3CCN(C4CCCCC4)CC3)CC2)O1", "note": "(stereo partly specified)", "values": [{"measurement": "Ki", "setting": "[3]", "value": "> 1000", "unit": "nM"}, {"measurement": "EC50", "setting": "Mu-type opioid receptor [4]", "value": "> 10000", "unit": "nM"}, {"measurement": "Ki", "setting": "Mu-type opioid receptor [5]", "value": "> 1000", "unit": "nM"}]}
{"smiles": "O[C@@H]1Cc2ccccc2C2(CCC(N3CCN(C4CCCCC4)CC3)CC2)O1", "note": "(stereo partly specified)", "values": [{"measurement": "Ki", "setting": "[2]", "value": 302, "unit": "nM"}]}
{"smiles": "COc1cc2c(cc1OC)CN(C1CCC3(CC1)O[C@@H](O)Cc1ccccc13)CC2", "note": "(stereo partly specified)", "values": [{"measurement": "Ki", "setting": "[2]", "value": "> 1000", "unit": "nM"}, {"measurement": "Ki", "setting": "[1]", "value": "> 1000", "unit": "nM"}]}
{"smiles": "COc1cc2c(cc1OC)CN(C1CCC3(CC1)O[C@@H](CCO)Cc1ccccc13)CC2", "note": "(stereo partly specified)", "values": [{"measurement": "Ki", "setting": "[2]", "value": "> 1000", "unit": "nM"}, {"measurement": "Ki", "setting": "[1]", "value": "> 1000", "unit": "nM"}]}
{"smiles": "CCOC(=O)C[C@H]1Cc2ccccc2C2(CCC(N3CCc4cc(OC)c(OC)cc4C3)CC2)O1", "note": "(stereo partly specified)", "values": [{"measurement": "Ki", "setting": "[1]", "value": "> 1000", "unit": "nM"}]}
{"smiles": "CCOC(=O)C[C@H]1Cc2ccccc2C2(CCC(N3CCN(C4CCCCC4)CC3)CC2)O1", "note": "(stereo partly specified)", "values": [{"measurement": "Ki", "setting": "[6]", "value": "> 1000", "unit": "nM"}, {"measurement": "Ki", "setting": "[1]", "value": 12, "unit": "nM"}, {"measurement": "Ki", "setting": "[3]", "value": "> 1000", "unit": "nM"}, {"measurement": "EC50", "setting": "Mu-type opioid receptor [4]", "value": "> 10000", "unit": "nM"}]}
{"smiles": "FCC[C@@H]1Cc2ccccc2C2(CCC(N3CCN(C4CCCCC4)CC3)CC2)O1", "note": "(stereo partly specified)", "values": [{"measurement": "Ki", "setting": "[6]", "value": "> 1000", "unit": "nM"}, {"measurement": "Ki", "setting": "[1]", "value": 12, "unit": "nM"}, {"measurement": "Ki", "setting": "[3]", "value": "> 1000", "unit": "nM"}, {"measurement": "Ki", "setting": "Mu-type opioid receptor [5]", "value": "> 1000", "unit": "nM"}]}
{"smiles": "Cc1ccc(CNC2CCC3(CC2)O[C@@H](CCF)Cc2ccccc23)c(C)c1", "note": "(stereo partly specified)", "values": [{"measurement": "Ki", "setting": "[2]", "value": "> 1000", "unit": "nM"}]}
{"smiles": "COc1cc2c(cc1OC)CN(C1CCC3(CC1)O[C@H](CCF)Cc1ccccc13)CC2", "note": "(stereo partly specified)", "values": [{"measurement": "Ki", "setting": "[2]", "value": "> 1000", "unit": "nM"}]}
{"smiles": "CCOC(=O)C[C@@H]1Cc2ccccc2C2(CCC(N3CCc4cc(OC)c(OC)cc4C3)CC2)O1", "note": "(stereo partly specified)", "values": [{"measurement": "Ki", "setting": "[2]", "value": "> 1000", "unit": "nM"}, {"measurement": "Ki", "setting": "[1]", "value": "> 1000", "unit": "nM"}]}
{"smiles": "FCC[C@H]1Cc2ccccc2C2(CCC(N3CCN(C4CCCCC4)CC3)CC2)O1", "note": "(stereo partly specified)", "values": [{"measurement": "Ki", "setting": "[6]", "value": "> 1000", "unit": "nM"}]}
{"smiles": "CCOC(=O)C[C@@H]1Cc2ccccc2C2(CCC(N3CCN(C4CCCCC4)CC3)CC2)O1", "note": "(stereo partly specified)", "values": [{"measurement": "Ki", "setting": "[1]", "value": 12, "unit": "nM"}]}
{"smiles": "CO[C@@H]1Cc2ccccc2C2(CCC(NCCCc3cn(-c4ccc(F)cc4)c4ccccc34)CC2)O1", "note": "(stereo partly specified)", "values": [{"measurement": "Ki", "setting": "[2]", "value": "> 1000", "unit": "nM"}, {"measurement": "Ki", "setting": "[1]", "value": "> 1000", "unit": "nM"}]}
{"smiles": "COc1cc2c(cc1OC)CN(C1CCC3(CC1)O[C@@H](OC)Cc1ccccc13)CC2", "note": "(stereo partly specified)", "values": [{"measurement": "Ki", "setting": "[1]", "value": "> 1000", "unit": "nM"}]}
{"smiles": "Cc1ccc(CNC2CCC3(CC2)O[C@@H](O)Cc2ccccc23)c(C)c1", "note": "(stereo partly specified)", "values": [{"measurement": "Ki", "setting": "[1]", "value": "> 1000", "unit": "nM"}]}
{"smiles": "CCOC(=O)C[C@@H]1Cc2ccccc2C2(CCC(NCc3ccc(C)cc3C)CC2)O1", "note": "(stereo partly specified)", "values": [{"measurement": "Ki", "setting": "[1]", "value": "> 1000", "unit": "nM"}]}
{"smiles": "CO[C@H]1Cc2ccccc2C2(CCC(NCCCc3cn(-c4ccc(F)cc4)c4ccccc34)CC2)O1", "note": "(stereo partly specified)", "values": [{"measurement": "Ki", "setting": "[2]", "value": "> 1000", "unit": "nM"}]}
{"smiles": "COc1cc2c(cc1OC)CN(C1CCC3(CC1)O[C@H](CCO)Cc1ccccc13)CC2", "note": "(stereo partly specified)", "values": [{"measurement": "Ki", "setting": "[2]", "value": "> 1000", "unit": "nM"}, {"measurement": "Ki", "setting": "[1]", "value": "> 1000", "unit": "nM"}]}
{"smiles": "Cc1ccc(CNC2CCC3(CC2)O[C@H](CCF)Cc2ccccc23)c(C)c1", "note": "(stereo partly specified)", "values": [{"measurement": "Ki", "setting": "[2]", "value": 302, "unit": "nM"}, {"measurement": "Ki", "setting": "[1]", "value": "> 1000", "unit": "nM"}]}
{"smiles": "CO[C@@H]1Cc2ccccc2C2(CCC(NC3CCc4ccccc4CC3)CC2)O1", "note": "(stereo partly specified)", "values": [{"measurement": "Ki", "setting": "[1]", "value": "> 1000", "unit": "nM"}]}
{"smiles": "COc1cc2c(cc1OC)CN(C1CCC3(CC1)O[C@@H](CCF)Cc1ccccc13)CC2", "note": "(stereo partly specified)", "values": [{"measurement": "Ki", "setting": "[2]", "value": 505, "unit": "nM"}, {"measurement": "Ki", "setting": "[1]", "value": "> 1000", "unit": "nM"}]}
{"smiles": "OCC[C@H]1Cc2ccccc2C2(CCC(N3CCN(C4CCCCC4)CC3)CC2)O1", "note": "(stereo partly specified)", "values": [{"measurement": "Ki", "setting": "[2]", "value": 505, "unit": "nM"}]}
{"smiles": "CO[C@H]1Cc2ccccc2C2(CCC(NCc3ccccc3)CC2)O1", "note": "(stereo partly specified)", "values": [{"measurement": "Ki", "setting": "[2]", "value": "> 1000", "unit": "nM"}]}
